Entries after “also recorded” stand apart in the source; their conditions may differ.
Tests used:
[1] = test system: contralateral breast cancer; settings: postmenopausal breast cancer patients; cited from earlier work
[2] = test system: breast epithelial proliferation; settings: three premenopausal volunteers; cited from earlier work
[3] = test system: BRCA-mediated breast cancer; settings: rodents; cited from earlier work
breast tissue = settings: healthy women; cited from earlier work
[4] = test system: WID-Breast5 (mean PMR of MTA1, HOXD12, LHX8, NEUROD1, CBLN4) in breast tissue; assay: WID-Breast5 (MethyLight PMR) in breast biopsies before and after treatment (Set 3); assay type: in vivo, human
Text: (§1) Study subjects for both trials were healthy premenopausal women aged 18 and above with regular menstrual cycles lasting 25-35 days and with no contraindications to mifepristone. The main exclusion criteria were: use of any hormonal or intrauterine contraception and pregnancy or breastfeeding two months prior to the study; a history of breast cancer or other malignancies and adnexal abnormality upon transvaginal ultrasound examination. All women were instructed to use barrier contraceptive methods throughout the duration of the study. After signing an informed consent, study subjects in both trials were randomised 1:1 or 1:2 into the vitamin arm (Triobe®—used as a comparator in these studies) or mifepristone arm in Trial 1 and Trial 2, respectively. One group (i.e. 16 BRCA carriers and 28 controls) was treated with 50 mg mifepristone (one quarter of 200 mg Mifegyne®, Exelgyn, Paris, France) every other day for two months in Trial 1 (n=28) and three months in Trial 2 (n=16) starting on the first day of the menstrual cycle. As mifepristone is only available in 200 mg tablets in Sweden, a study nurse divided the tablets into 4 parts (each 50 mg) and instructed the study subjects to take one part every other day. The other group (i.e. 8 BRCA carriers and 29 controls) received Triobe® tablets which are visually identical to mifepristone and were also divided into 4 parts [one quarter of TrioBe® contains 0.125 mg cyanocobalamin (Vitamin B12), 0.2 mg folic acid (Vitamin B9), and 0.75 mg Pyridoxinhydrochlorid (Vitamin B6)]. Tablets were dispensed for two weeks at a time. Core needle aspiration biopsies were collected during the luteal phase before treatment and at the end of treatment during the luteal phase (vitamin treatment) or corresponding time of the cycle (mifepristone treatment). The biopsies were collected under ultrasound guidance from the upper outer quadrant of one breast using a 14 Gauge needle with an outer diameter of 2.2 mm. The end-of-treatment breast biopsy was taken from the same area. From Trial 1, 12 women from each of the vitamin and mifepristone groups were included in this study; of these, 11 and 9 women, respectively, had provided sufficient DNA from the pre- and post-treatment biopsies for subsequent processing and analysis. […]
Sodium bisulfite conversion of genomic DNA and the MethyLight assay were performed as previously described (A. Jones et al., Role of DNA methylation and epigenetic silencing of HAND2 in endometrial cancer development. PLoS Med 10, e1001551 (2013)). […] The percentage of fully methylated molecules at a specific locus has been calculated by dividing the GENE:COL2A1 ratio of a sample by the GENE:COL2A1 ratio of SssI-treated human white blood cell DNA and multiplied by 100. […]

mammary cancer = settings: mice; cited from earlier work
[5] = test system: WID-Breast29 (mean methylation level of 37 CpGs) in breast tissue; assay: WID-Breast29 in breast biopsies before and after treatment (clinical trials, Set 3); assay type: in vivo, human
Text: Set 3: to assess the performance of the WID-Breast29 test monitoring preventive measures in real time. The samples were obtained from two clinical trials (FIG. 4) as follows.
Trial 1 was “Mifepristone treatment prior to insertion of a levonorgestrel releasing intrauterine system for improved bleeding control—a randomised controlled trial” (1) (EudraCT number: 2009-009014-40; Regional ethical review board at Karolinska Institutet permit 2009/144-31/4). The primary objective was to assess the effect of mifepristone pre-treatment on the initial bleeding pattern after insertion of a levonorgestrel releasing intrauterine system. An included secondary objective was to study the effect of mifepristone on breast tissue.
Trial 2 was “The Effect of a Progesterone Receptor Modulator on Breast Tissue in Women with BRCA-1 and -2 Mutations” (ClinicalTrials.gov Identifier: NCT01898312; regional ethical review board at Karolinska Institutet permit 2012/729 31/1). The core objective of this ongoing study is to assess the safety and effect of treatment with mifepristone on epithelial cell proliferation in human breast tissue in women with BRCA-1 or -2 mutations prior to protective mastectomy.
as §1, with “time.” for “time. Core needle aspiration biopsies were collected during the luteal phase before treatment and at the end of treatment during the luteal phase (vitamin treatment) or corresponding time of the cycle (mifepristone treatment). The biopsies were collected under ultrasound guidance from the upper outer quadrant of one breast using a 14 Gauge needle with an outer diameter of 2.2 mm. The end-of-treatment breast biopsy was taken from the same area. From Trial 1, 12 women from each of the vitamin and mifepristone groups were included in this study; of these, 11 and 9 women, respectively, had provided sufficient DNA from the pre- and post-treatment biopsies for subsequent processing and analysis.”

[6] = biopsies before and after 2-3 month treatment

| Compound | impact on the incidence of contralateral breast cancer [1] | effect on breast epithelial proliferation [2] | prevention of BRCA-mediated breast cancer formation [3] | effect on proliferation in breast tissue (breast tissue) | BRCA mutant volunteers not showing a reduction of the WID-Breast5 after treatment ([4]; BRCA mutant volunteers (6/10)) [%] | women exhibiting a lower WID-Breast5 after treatment ([4]; all women of the group (12 vitamins, 16 mifepristone), biopsies before and after 2-3 month treatment) [%] | change in WID-Breast5 after treatment (paired-sample t-test) [4, 6] | control volunteers showing a reduction of the WID-Breast5 after treatment ([4]; healthy control volunteers (n=6)) [%] | effect on mammary cancer development (mammary cancer) | BRCA mutant volunteers not showing a reduction of the WID-Breast29 after treatment ([5]; BRCA mutant volunteers (4/11)) [%] | women exhibiting a lower WID-Breast29 after treatment ([5]; all women of the group (15 vitamins, 20 mifepristone), biopsies before and after 2-3 month treatment) [%] | change in WID-Breast29 after treatment (paired-sample t-test) [5, 6] | control volunteers showing a reduction of the WID-Breast29 after treatment ([5]; healthy control volunteers (n=9)) [%] |
| --- | --- | --- | --- | --- | --- | --- | --- | --- | --- | --- | --- | --- | --- |
| Denosumab: fully humanised monoclonal antibody that binds RANKL | does not appear to impact | reduce breast epithelial proliferation |  |  |  |  |  |  |  |  |  |  |  |
| CC#C[C@]1(O)CC[C@H]2[C@@H]3CCC4=CC(=O)CCC4=C3[C@@H](c3ccc(N(C)C)cc3)C[C@@]21C [mifepristone] |  |  | can be prevented | antiproliferative effect | 60 | 75 | highly significant reduction; also recorded: significantly reduced | 100 | reduce mammary cancer development | 36 | 80 | highly significant reduction; also recorded: significantly reduced | 100 |

Reference: patent US20240043933A1, “METHODS FOR DETECTING AND PREDICTING BREAST CANCER” (UCL Business Ltd, priority 2020, published 2024)
